Assay results from ChEMBL document CHEMBL1811769, “Bioactive 11,20-epoxy-3,5(16)-diene briarane diterpenoids from the South China Sea gorgonian Dichotella gemmacea” (J Nat Prod, 2011).
Calls of active or inactive are those of the source. The calls are words filed in the database; no cut-off is given here.

What was measured:
Priestia megaterium = experiment: Antibacterial activity against Bacillus megaterium at 0.05 mg by agar diffusion method; assay type: functional; details: for zone of inhibition at 50 µg/disc: read-out: DIZ
Escherichia coli = experiment: Antibacterial activity against Escherichia coli at 0.05 mg by agar diffusion method; assay type: functional; details: for zone of inhibition at 50 µg/disc: read-out: DIZ
Zymoseptoria tritici = experiment: Antifungal activity against Septoria tritici at 0.05 mg by agar diffusion method; assay type: functional; details: for zone of inhibition at 50 µg/disc: read-out: DIZ
Microbotryum violaceum = experiment: Antifungal activity against Microbotryum violaceum at 0.05 mg by agar diffusion method; assay type: functional; details: for zone of inhibition at 50 µg/disc: read-out: DIZ
A549 = experiment: Growth inhibition of human A549 cells by MTT assay; assay type: functional, cell-based
MG-63 = experiment: Growth inhibition of human MG63 cells by MTT assay; assay type: functional, cell-based

| IC50 (A549) [µM] | SMILES | diameter of the inhibition zone (DIZ) (Priestia megaterium) | diameter of the inhibition zone (DIZ) (Escherichia coli) | diameter of the inhibition zone (DIZ) (Zymoseptoria tritici) | diameter of the inhibition zone (DIZ) (Microbotryum violaceum) | IC50 (MG-63) [µM] | zone of inhibition at 50 µg/disc (Priestia megaterium) [mm] | zone of inhibition at 50 µg/disc (Escherichia coli) [mm] | zone of inhibition at 50 µg/disc (Zymoseptoria tritici) [mm] | zone of inhibition at 50 µg/disc (Microbotryum violaceum) [mm] |
| --- | --- | --- | --- | --- | --- | --- | --- | --- | --- | --- |
|  | C=C1/C=C/[C@H](OC(C)=O)[C@@]2(C)[C@@H](OC(C)=O)CC[C@]3(CO3)[C@@H]2[C@H](OC(C)=O)[C@]2(O)[C@@H](C)C(=O)O[C@H]2[C@H]1Cl | inactive | inactive | inactive | inactive |  |  |  |  |  |
|  | C=C1/C=C/[C@H](OC(C)=O)[C@@]2(C)[C@@H](OC(C)=O)[C@@H](OC(=O)CC(C)C)[C@@H](OC(C)=O)[C@]3(CO3)[C@@H]2[C@H](OC(C)=O)[C@]2(O)[C@@H](C)C(=O)O[C@H]2[C@H]1Cl | inactive | inactive | inactive | inactive |  |  |  |  |  |
| 2.8 | COc1cccc2c1C(=O)c1c(O)c3c(c(O)c1C2=O)C[C@@](O)(C(=O)CO)C[C@@H]3O[C@H]1C[C@H](N)[C@H](O)[C@H](C)O1 [DOXORUBICIN] |  |  |  |  | 2.8 |  |  |  |  |
| 8.4 | C=C1/C=C/[C@H](OC(C)=O)[C@@]2(C)[C@@H](OC(C)=O)[C@@H](OC(C)=O)[C@@H](OC(C)=O)[C@]3(CO3)[C@@H]2[C@H](OC(C)=O)[C@]2(O)[C@@H](C)C(=O)O[C@H]2[C@H]1Cl [GEMMACOLIDE G] | inactive | inactive | inactive | inactive | 38.4 |  |  |  |  |
| 47.3 | C=C1/C=C/[C@H](OC(C)=O)[C@@]2(C)[C@@H](OC(C)=O)C[C@@H](OC(C)=O)[C@]3(CO3)[C@@H]2[C@H](OC(C)=O)[C@]2(O)[C@@H](C)C(=O)O[C@H]2[C@H]1Cl [GEMMACOLIDE H] | inactive | inactive | inactive | inactive | 54 |  |  |  |  |
| 20.6 | C=C1/C=C/[C@H](OC(C)=O)[C@@]2(C)[C@@H](OC(C)=O)C[C@@H](OC(=O)CC(C)C)[C@]3(CO3)[C@@H]2[C@H](OC(C)=O)[C@]2(O)[C@@H](C)C(=O)O[C@H]2[C@H]1Cl [GEMMACOLIDE I] | inactive | inactive | inactive | inactive | 25 |  |  |  |  |
| < 1.4 | C=C1/C=C/[C@H](OC(C)=O)[C@@]2(C)[C@@H](OC(C)=O)[C@@H](OC(C)=O)[C@@H](OC(=O)CC(C)C)[C@]3(CO3)[C@@H]2[C@H](OC(C)=O)[C@]2(O)[C@@H](C)C(=O)O[C@H]2[C@H]1Cl [GEMMACOLIDE J] |  |  |  |  | 79.8 | 16 |  |  |  |
|  | CC(=O)N1CCN(c2ccc(OCC3COC(Cn4ccnc4)(c4ccc(Cl)cc4Cl)O3)cc2)CC1 (stereo not drawn) [KETOCONAZOLE] |  |  |  |  |  | 18 | 18 | 25 | 30 |
|  | CC1(C)S[C@@H]2[C@H](NC(=O)Cc3ccccc3)C(=O)N2[C@H]1C(=O)O [PENICILLIN G] |  |  |  |  |  | 26 | 8 | 12 | 14 |
|  | CN[C@@H]1[C@H](O[C@H]2[C@H](O[C@H]3[C@H](O)[C@@H](O)[C@H](N=C(N)N)[C@@H](O)[C@@H]3N=C(N)N)O[C@@H](C)[C@]2(O)C=O)O[C@@H](CO)[C@H](O)[C@H]1O [STREPTOMYCIN] |  |  |  |  |  | 11 | 18 | 11 | 16 |
